Measurements published in ChEMBL document CHEMBL3826886, “LpxC Inhibitors: Design, Synthesis, and Biological Evaluation of Oxazolidinones as Gram-negative Antibacterial Agents” (ACS Med Chem Lett, 2016).
Values after ≈ are worked out from the molar mass of the structure shown. Active and inactive are the calls of the source. The calls are words filed in the database; no cut-off is given here.

Experiments:
[1] = molecular target: T1, UDP-3-O-acyl-N-acetylglucosamine deacetylase (Escherichia coli K-12, UniProt P0A725); assay: Inhibition of Escherichia coli LpxC using UDP-3-O-(R-3-hydroxymyristoyl)GlcNAc as substrate measured after 60 mins by fluorescence analysis
T1 sequence (P0A725 whole entry): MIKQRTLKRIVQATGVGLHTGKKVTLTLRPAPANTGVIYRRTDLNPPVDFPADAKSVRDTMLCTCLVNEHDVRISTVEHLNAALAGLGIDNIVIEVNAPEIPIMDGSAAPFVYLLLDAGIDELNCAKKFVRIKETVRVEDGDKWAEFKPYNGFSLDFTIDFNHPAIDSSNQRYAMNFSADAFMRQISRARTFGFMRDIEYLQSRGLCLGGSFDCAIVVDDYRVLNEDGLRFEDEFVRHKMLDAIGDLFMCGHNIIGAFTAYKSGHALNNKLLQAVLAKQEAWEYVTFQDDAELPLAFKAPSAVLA

Escherichia coli [2] = assay: Antibacterial activity against wild-type Escherichia coli TG1 after 16 to 20 hrs by agar dilution method; format: functional
Escherichia coli [3] = assay: Antibacterial activity against Escherichia coli KAM3 harboring acrB deletion mutant after 16 to 20 hrs by agar dilution method; format: functional
Klebsiella pneumoniae = assay: Antibacterial activity against wild-type Klebsiella pneumoniae ATCC 13883 by agar dilution method; format: functional
[4] = Ratio of MIC for wild-type Escherichia coli TG1 to MIC for Escherichia coli KAM3 acrB deletion mutant; format: functional
Pseudomonas aeruginosa [5] = assay: Antibacterial activity against Pseudomonas aeruginosa K799/61 measured after 16 to 20 hrs by agar dilution method; format: functional, organism-based
Acinetobacter baumannii = assay: Antibacterial activity against Acinetobacter baumannii ATCC 19606 measured after 20 to 24 hrs by agar dilution method; format: functional
Pseudomonas aeruginosa [6] = assay: Antibacterial activity against wild type Pseudomonas aeruginosa K799 measured after 16 to 20 hrs by agar dilution method; format: functional, organism-based
Pseudomonas aeruginosa [7] = assay: Antibacterial activity against Pseudomonas aeruginosa PAO4009 measured after 16 to 20 hrs by agar dilution method; format: functional, organism-based

| SMILES | IC50 [1] [nM] | MIC (Escherichia coli [2]) [µg/mL] | MIC (Escherichia coli [3]) [µg/mL] | MIC (Klebsiella pneumoniae) [µg/mL] | Ratio [4] | Activity (Pseudomonas aeruginosa [5]) | Activity (Acinetobacter baumannii) | Activity (Pseudomonas aeruginosa [6]) | Activity (Pseudomonas aeruginosa [7]) |
| --- | --- | --- | --- | --- | --- | --- | --- | --- | --- |
| O=C(NO)[C@@H]1CN(c2ccc(C#CC#CCCCO)cc2)C(=O)O1 | 58 | 0.125 (≈ 0.381 µM) | 0.031 (≈ 0.0944 µM) | 2 (≈ 6.09 µM) | 2 |  |  |  |  |
| O=C(NO)[C@@H]1CN(c2ccc(C#CC#CC3CC3)c([N+](=O)[O-])c2)C(=O)O1 | 27 | 0.125 (≈ 0.352 µM) | 0.31 (≈ 0.872 µM) | 1 (≈ 2.81 µM) | 2 |  |  |  |  |
| O=C(NO)[C@@H]1CN(c2ccc(C#Cc3ccc(CN4CCOCC4)cc3)cc2)C(=O)CO1 | 510 | 2 (≈ 4.59 µM) | 0.25 (≈ 0.574 µM) | 16 (≈ 36.7 µM) |  |  |  |  |  |
| O=C(NO)c1ccc(=O)n(-c2ccc(C#Cc3ccc(CN4CCOCC4)cc3)cc2)c1 | 1000 | 8 (≈ 18.6 µM) | 1 (≈ 2.33 µM) | 64 (≈ 149 µM) |  |  |  |  |  |
| O=C(NO)[C@@H]1CN(c2ccc(C#CC#CC3CC3)c(F)c2)C(=O)O1 | 6 | 0.016 (≈ 0.0487 µM) | 0.004 (≈ 0.0122 µM) | 0.063 (≈ 0.192 µM) | 2 | inactive | inactive | inactive | inactive |
| O=C(NO)[C@@H]1CN(c2ccc(C#CC#CC3CC3)cc2)C(=O)O1 | 18 | 0.063 (≈ 0.203 µM) | 0.016 (≈ 0.0516 µM) | 0.25 (≈ 0.806 µM) | 2 | inactive | inactive | inactive | inactive |
| C[C@@H](O)[C@H](NC(=O)c1ccc(C#Cc2ccc(CN3CCOCC3)cc2)cc1)C(=O)NO |  | 0.13 (≈ 0.297 µM) | 0.01 (≈ 0.0229 µM) | 0.25 (≈ 0.571 µM) |  |  |  |  |  |
| O=C(NO)[C@@H]1CN(c2ccc(C#Cc3ccc(CN4CCOCC4)cc3)cc2)C(=O)O1 | 130 | 0.5 (≈ 1.19 µM) | 0.06 (≈ 0.142 µM) | 2 (≈ 4.75 µM) | 2 | inactive | inactive | inactive | inactive |
| O=C(NO)[C@@H]1CN(c2ccc(C#Cc3ccc(CN4CCOCC4)cc3)cc2)C(=O)N1 | 700 | 8 (≈ 19 µM) | 0.5 (≈ 1.19 µM) | > 32 |  |  |  |  |  |
| O=C(NO)[C@@H]1CN(c2ccc(C#CC#C[C@H]3C[C@@H]3CO)cc2)C(=O)O1 (mixture of isomers) | 20 | 0.125 | 0.016 | 1 | 2 |  |  |  |  |
| O=C(NO)[C@@H]1CN(c2ccc(C#CC#CC3CC3)cc2F)C(=O)O1 | 200 | 0.5 (≈ 1.52 µM) | 0.25 (≈ 0.762 µM) | 4 (≈ 12.2 µM) | 2 | inactive | inactive | inactive | inactive |
| O=C(NO)[C@H]1CN(c2ccc(C#Cc3ccc(CN4CCOCC4)cc3)cc2)C(=O)O1 | 260 | 1 (≈ 2.37 µM) | 0.13 (≈ 0.308 µM) | 8 (≈ 19 µM) |  |  |  |  |  |
| COc1cc(C#CC#CC2CC2)ccc1N1C[C@@H](C(=O)NO)OC1=O | 2000 | 4 (≈ 11.8 µM) | 0.5 (≈ 1.47 µM) | 32 (≈ 94 µM) | 2 |  |  |  |  |
| O=C(NO)[C@@H]1CN(c2ccc(C#CC#CCCO)cc2)C(=O)O1 | 140 | 0.5 (≈ 1.59 µM) | 0.125 (≈ 0.398 µM) | 8 (≈ 25.5 µM) | 2 |  |  |  |  |
| Nc1cc(N2C[C@@H](C(=O)NO)OC2=O)ccc1C#CC#CC1CC1 | 270 | 0.25 (≈ 0.768 µM) | 0.063 (≈ 0.194 µM) | 2 (≈ 6.15 µM) | 2 |  |  |  |  |
